Results as given in ChEMBL document CHEMBL5500384, “New synergistic benzoquinone scaffolds as inhibitors of mycobacterial cytochrome bc1 complex to treat multi-drug resistant tuberculosis” (Eur J Med Chem, 2024).

Key:
[1] = Acute toxicity in Albino mouse assessed as mortality at 50 mg/kg, po after 14 days; format: organism-based; settings: in vivo, 336 h, time 14 day
[2] = Acute toxicity in Albino mouse assessed as mortality at 300 mg/kg, po after 5 to 8 hrs; format: organism-based; settings: in vivo, time 5-8 hrs
[3] = Cytotoxicity against african green monkey Vero cells by MTT assay; format: toxicity, cell-based; settings: chlorocebus sabaeus
[4] = tested on: Mycobacterium tuberculosis; experiment: Antitubercular activity against Mycobacterium tuberculosis H37Rv assessed as effect on nucleoid morphology at 12.5 ug/ml by fluorescence microscopy analysis; format: functional; settings: dose 12.5 µg/ml
[5] = tested on: Mycobacterium tuberculosis; experiment: Antitubercular activity against Mycobacterium tuberculosis H37Rv assessed as effect on nucleoid morphology at 6.25 ug/ml by fluorescence microscopy analysis; format: functional; settings: dose 6.25 µg/ml
[6] = Acute toxicity in Albino mouse assessed as mortality at 300 mg/kg, po after 14 days; format: organism-based; settings: in vivo, 336 h, time 14 day

| Compound | Activity [1] | Activity [2] | Activity [3] | Activity [4] | Activity [5] | Activity [6] |
| --- | --- | --- | --- | --- | --- | --- |
| COc1ccc(C2C(Cl)C(=O)N2C2=C(Cl)C(=O)c3ccccc3C2=O)cc1 (configuration not stated) | Non-Toxic | Toxic | Dose-Dependent Effect | 99% | – | – |
| CN(C)c1ccc(C2C(Cl)C(=O)N2C2=C(Cl)C(=O)c3ccccc3C2=O)cc1 (configuration not stated) | – | – | Dose-Dependent Effect | – | 99% | Non-Toxic |
